# Measurements published in PMC5218480 (PLoS ONE, 2017).
# Tested on: MV-4-11 cells
# Assay: Gene expression microarray analysis (Affymetrix PrimeView) and GSEA
# Format: cell-based, human
# Parameters: RFU PODN (11730768_x_at) / Fold change /veh PODN (11730768_x_at) / RFU LINC00158 (11744669_a_at) / Fold change /veh LINC00158 (11744669_a_at) / RFU DUSP10 (11751237_a_at) / Fold change /veh DUSP10 (11751237_a_at) / RFU ID3 (11757404_x_at) / Fold change /veh ID3 (11757404_x_at) / RFU PLEKHG5 (11737974_s_at) / Fold change /veh PLEKHG5 (11737974_s_at) / RFU LRRC4B (11730491_at) / Fold change /veh LRRC4B (11730491_at) / RFU GIMAP4 (11747438_a_at) / Fold change /veh GIMAP4 (11747438_a_at) / RFU KRT8 (11758183_x_at) / Fold change /veh KRT8 (11758183_x_at) / RFU CNN1 (11734310_a_at) / Fold change /veh CNN1 (11734310_a_at) / RFU VPS37D (11726825_at) / Fold change /veh VPS37D (11726825_at) / RFU C10orf10 (11716522_x_at) / Fold change /veh C10orf10 (11716522_x_at) / RFU KIR2DL2 /// KIR2DL4 /// KIR2DL5A /// KIR2DL5B /// KIR2DS1 /// KIR2DS2 /// KIR2DS3 /// KIR2DS4 /// KIR3DL3 /// KIR3DL3 /// KIR3DS1 (11738374_at) / Fold change /veh KIR2DL2 /// KIR2DL4 /// KIR2DL5A /// KIR2DL5B /// KIR2DS1 /// KIR2DS2 /// KIR2DS3 /// KIR2DS4 /// KIR3DL3 /// KIR3DL3 /// KIR3DS1 (11738374_at) / RFU C1QL1 (11718748_at) / Fold change /veh C1QL1 (11718748_at) / RFU TMPRSS4 (11747572_a_at) / Fold change /veh TMPRSS4 (11747572_a_at) / RFU HAMP (11756126_x_at) / Fold change /veh HAMP (11756126_x_at) / RFU RNFT2 (11725882_a_at) / Fold change /veh RNFT2 (11725882_a_at) / RFU NR4A2 (11747474_a_at) / Fold change /veh NR4A2 (11747474_a_at) / RFU ABCC12 (11746883_a_at) / Fold change /veh ABCC12 (11746883_a_at) / RFU TMEM136 (11760407_x_at) / Fold change /veh TMEM136 (11760407_x_at) / RFU CLDN22 /// WWC2 (11732394_at) / Fold change /veh CLDN22 /// WWC2 (11732394_at) / RFU HLA-DPB1 (11760878_x_at) / Fold change /veh HLA-DPB1 (11760878_x_at) / RFU SPINT1 (11716480_a_at) / Fold change /veh SPINT1 (11716480_a_at) / RFU GAP43 (11754022_s_at) / Fold change /veh GAP43 (11754022_s_at) / RFU A4GNT (11735810_at) / Fold change /veh A4GNT (11735810_at) / RFU PRB3 (11715151_x_at) / Fold change /veh PRB3 (11715151_x_at) / RFU TUBB4B (11761932_at) / Fold change /veh TUBB4B (11761932_at) / RFU CAPN14 (11732068_a_at) / Fold change /veh CAPN14 (11732068_a_at) / RFU TMCC2 (11721928_a_at) / Fold change /veh TMCC2 (11721928_a_at) / RFU IRGQ (11745062_a_at) / Fold change /veh IRGQ (11745062_a_at) / RFU FAM174B (11720279_a_at) / Fold change /veh FAM174B (11720279_a_at) / RFU TMPRSS4 (11748680_a_at) / Fold change /veh TMPRSS4 (11748680_a_at) / RFU FAM212B (11763350_a_at) / Fold change /veh FAM212B (11763350_a_at) / RFU PLEKHG5 (11743358_a_at) / Fold change /veh PLEKHG5 (11743358_a_at) / RFU ZSCAN30 (11745921_a_at) / Fold change /veh ZSCAN30 (11745921_a_at) / RFU CMKLR1 (11741424_a_at) / Fold change /veh CMKLR1 (11741424_a_at) / RFU LOC101060620 /// MAPK8IP1 (11723275_at) / Fold change /veh LOC101060620 /// MAPK8IP1 (11723275_at) / RFU SPTSSB (11747773_x_at) / Fold change /veh SPTSSB (11747773_x_at) / RFU PRSS12 (11739890_at) / Fold change /veh PRSS12 (11739890_at) / RFU BIN1 (11741810_x_at) / Fold change /veh BIN1 (11741810_x_at) / RFU WNT11 (11732464_a_at) / Fold change /veh WNT11 (11732464_a_at) / RFU C10orf10 (11716521_a_at) / Fold change /veh C10orf10 (11716521_a_at) / RFU C5orf56 (11738089_at) / Fold change /veh C5orf56 (11738089_at) / RFU CYB561 (11721691_x_at) / Fold change /veh CYB561 (11721691_x_at) / RFU ANKRD19P (11752326_a_at) / Fold change /veh ANKRD19P (11752326_a_at) / RFU OR2T12 /// OR2T33 /// OR2T8 (11738714_s_at) / Fold change /veh OR2T12 /// OR2T33 /// OR2T8 (11738714_s_at) / RFU VCAN (11748164_a_at) / Fold change /veh VCAN (11748164_a_at) / RFU JSRP1 (11732532_at) / Fold change /veh JSRP1 (11732532_at) / RFU KRTAP10-11 (11738290_x_at) / Fold change /veh KRTAP10-11 (11738290_x_at) / RFU MYO3A (11730013_a_at) / Fold change /veh MYO3A (11730013_a_at) / RFU EBF3 (11725865_a_at) / Fold change /veh EBF3 (11725865_a_at) / RFU CAMK2N1 (11719241_x_at) / Fold change /veh CAMK2N1 (11719241_x_at) / RFU C5orf56 (11738088_a_at) / Fold change /veh C5orf56 (11738088_a_at) / RFU OLFML3 (11715873_a_at) / Fold change /veh OLFML3 (11715873_a_at) / RFU LOC100653217 /// NTM (11731650_a_at) / Fold change /veh LOC100653217 /// NTM (11731650_a_at) / RFU MAPK11 (11762145_a_at) / Fold change /veh MAPK11 (11762145_a_at) / RFU FIZ1 (11724087_x_at) / Fold change /veh FIZ1 (11724087_x_at) / RFU OASL (11726364_x_at) / Fold change /veh OASL (11726364_x_at) / RFU SOX15 (11748057_x_at) / Fold change /veh SOX15 (11748057_x_at) / RFU CD79A (11719716_a_at) / Fold change /veh CD79A (11719716_a_at) / RFU HIST1H1D (11736915_at) / Fold change /veh HIST1H1D (11736915_at) / RFU CASKIN2 (11723855_a_at) / Fold change /veh CASKIN2 (11723855_a_at) / RFU LOC730098 (11760151_x_at) / Fold change /veh LOC730098 (11760151_x_at) / RFU OR4N2 (11742367_at) / Fold change /veh OR4N2 (11742367_at) / RFU PRRT2 (11749266_a_at) / Fold change /veh PRRT2 (11749266_a_at) / RFU SNX32 (11753110_a_at) / Fold change /veh SNX32 (11753110_a_at) / RFU CDHR5 (11726645_a_at) / Fold change /veh CDHR5 (11726645_a_at) / RFU RCAN1 (11760418_a_at) / Fold change /veh RCAN1 (11760418_a_at) / RFU FAM167A (11723789_a_at) / Fold change /veh FAM167A (11723789_a_at) / RFU FAM26E (11764081_at) / Fold change /veh FAM26E (11764081_at) / RFU ISYNA1 (11749810_s_at) / Fold change /veh ISYNA1 (11749810_s_at) / RFU ACY1 (11761880_at) / Fold change /veh ACY1 (11761880_at) / RFU 11764098_at / Fold change /veh 11764098_at / RFU SAMD14 (11745864_x_at) / Fold change /veh SAMD14 (11745864_x_at) / RFU NPB (11741838_a_at) / Fold change /veh NPB (11741838_a_at) / RFU TMPRSS6 (11731388_a_at) / Fold change /veh TMPRSS6 (11731388_a_at) / RFU KRTAP10-2 (11738614_at) / Fold change /veh KRTAP10-2 (11738614_at) / RFU ARHGAP8 /// PRR5-ARHGAP8 (11727945_x_at) / Fold change /veh ARHGAP8 /// PRR5-ARHGAP8 (11727945_x_at) / RFU KRTAP5-7 /// NADSYN1 (11734609_at) / Fold change /veh KRTAP5-7 /// NADSYN1 (11734609_at) / RFU RASL12 (11751679_a_at) / Fold change /veh RASL12 (11751679_a_at) / RFU CDKN2B (11736163_a_at) / Fold change /veh CDKN2B (11736163_a_at) / RFU PRF1 (11729649_at) / Fold change /veh PRF1 (11729649_at) / RFU, ZNF638 /// ZNF638-IT1 / Fold change vs veh, ZNF638 /// ZNF638-IT1 / RFU, PANK3 / Fold change vs veh, PANK3 / RFU, SH3YL1 / Fold change vs veh, SH3YL1 / RFU, ZEB2 / Fold change vs veh, ZEB2 / RFU, NRIP1 / Fold change vs veh, NRIP1 / RFU, PTTG1IP / Fold change vs veh, PTTG1IP / RFU, CAPN2 / Fold change vs veh, CAPN2 / RFU, MED14 / Fold change vs veh, MED14 / RFU, SNORA58 / Fold change vs veh, SNORA58 / RFU, C1orf63 / Fold change vs veh, C1orf63 / RFU, LRRFIP1 / Fold change vs veh, LRRFIP1 / RFU, NDUFAF7 / Fold change vs veh, NDUFAF7 / RFU, SLC12A2 / Fold change vs veh, SLC12A2 / RFU, IBTK / Fold change vs veh, IBTK / RFU, ESF1 / Fold change vs veh, ESF1 / Fold change vs veh, TMEM50B / RFU, TAOK1 / Fold change vs veh, TAOK1 / RFU, ACBD3 / Fold change vs veh, ACBD3 / RFU, TMA16 / Fold change vs veh, TMA16 / RFU, RWDD3 / Fold change vs veh, RWDD3 / RFU, BCAT1 / Fold change vs veh, BCAT1 / RFU, EDEM3 / Fold change vs veh, EDEM3 / RFU, TMEM33 / Fold change vs veh, TMEM33 / RFU, WDR75 / Fold change vs veh, WDR75 / RFU, AHCTF1 / Fold change vs veh, AHCTF1 / RFU, TFRC / Fold change vs veh, TFRC / RFU, ZDHHC17 / Fold change vs veh, ZDHHC17 / RFU, NOM1 / Fold change vs veh, NOM1 / RFU, ARL8B / Fold change vs veh, ARL8B / RFU, ZBTB11 / Fold change vs veh, ZBTB11 / RFU, TAMM41 / Fold change vs veh, TAMM41 / RFU, KIAA1704 /// LOC100996395 / Fold change vs veh, KIAA1704 /// LOC100996395 / RFU, ING1 / Fold change vs veh, ING1 / RFU, TRMT61B / Fold change vs veh, TRMT61B / RFU, FUBP3 / Fold change vs veh, FUBP3 / RFU, TP53 / Fold change vs veh, TP53 / RFU, TNKS2 / Fold change vs veh, TNKS2 / RFU, ZFP14 / Fold change vs veh, ZFP14 / RFU, ACTR2 / Fold change vs veh, ACTR2 / RFU, PPP3R1 / Fold change vs veh, PPP3R1 / RFU, PIK3R1 / Fold change vs veh, PIK3R1 / RFU, HNRNPA1 / Fold change vs veh, HNRNPA1 / RFU, RNF170 / Fold change vs veh, RNF170 / RFU, ZNF28 / Fold change vs veh, ZNF28 / RFU, RNGTT / Fold change vs veh, RNGTT / RFU, OGT / Fold change vs veh, OGT / RFU, BRD1 / Fold change vs veh, BRD1 / RFU, MARS / Fold change vs veh, MARS / RFU, ZNF655 / Fold change vs veh, ZNF655 / RFU, FAHD1 / Fold change vs veh, FAHD1 / RFU, BDP1 / Fold change vs veh, BDP1 / RFU, LRRCC1 / Fold change vs veh, LRRCC1 / RFU, ARID1A / Fold change vs veh, ARID1A / RFU, ZNF146 / Fold change vs veh, ZNF146 / RFU, ZNF330 / Fold change vs veh, ZNF330 / RFU, GPN3 / Fold change vs veh, GPN3 / RFU, C9orf123 / Fold change vs veh, C9orf123 / RFU, N4BP2L2 / Fold change vs veh, N4BP2L2 / RFU, ARFIP1 / Fold change vs veh, ARFIP1 / RFU, FAM179B / Fold change vs veh, FAM179B / RFU, BCL10 / Fold change vs veh, BCL10 / RFU, UHRF1BP1L / Fold change vs veh, UHRF1BP1L / RFU, BET1 / Fold change vs veh, BET1 / RFU, CNOT2 / Fold change vs veh, CNOT2 / RFU, ZNF268 / Fold change vs veh, ZNF268 / Fold change vs veh, ZNF507 / RFU, DGCR2 / Fold change vs veh, DGCR2 / RFU, WDSUB1 / Fold change vs veh, WDSUB1 / Fold change vs veh, HSP90B1 /// MIR3652 / RFU, ADSS / Fold change vs veh, ADSS / RFU, GK / Fold change vs veh, GK / RFU, ZNF148 / Fold change vs veh, ZNF148 / RFU, TAF9 / Fold change vs veh, TAF9 / RFU, SLC1A5 / Fold change vs veh, SLC1A5 / RFU, SLMO2 / Fold change vs veh, SLMO2 / RFU, ABCC4 / Fold change vs veh, ABCC4 / RFU, LOC101060439 /// RAP1B / Fold change vs veh, LOC101060439 /// RAP1B / RFU, RFX7 / Fold change vs veh, RFX7 / RFU, GTPBP10 / Fold change vs veh, GTPBP10 / RFU, CNEP1R1 / Fold change vs veh, CNEP1R1 / RFU, BIVM-ERCC5 /// ERCC5 / Fold change vs veh, BIVM-ERCC5 /// ERCC5 / RFU, ILF3 / Fold change vs veh, ILF3 / RFU 11762660_at / Fold change /veh 11762660_at / RFU VCAN (11757783_s_at) / Fold change /veh VCAN (11757783_s_at) / RFU DDX43 (11728927_at) / Fold change /veh DDX43 (11728927_at) / RFU KRT8 (11758188_x_at) / Fold change /veh KRT8 (11758188_x_at) / RFU NKD1 (11759106_at) / Fold change /veh NKD1 (11759106_at) / RFU SRD5A1 (11742802_a_at) / Fold change /veh SRD5A1 (11742802_a_at) / RFU TPSAB1 /// TPSB2 (11721975_s_at) / Fold change /veh TPSAB1 /// TPSB2 (11721975_s_at) / RFU GSTM3 (11746129_a_at) / Fold change /veh GSTM3 (11746129_a_at) / RFU IL23R (11737362_x_at) / Fold change /veh IL23R (11737362_x_at) / RFU TMEM51 (11727254_a_at) / Fold change /veh TMEM51 (11727254_a_at) / RFU PIWIL2 (11732686_x_at) / Fold change /veh PIWIL2 (11732686_x_at) / RFU ORM1 (11744905_x_at) / Fold change /veh ORM1 (11744905_x_at) / RFU CCDC152 (11743942_at) / Fold change /veh CCDC152 (11743942_at) / RFU ECM1 (11717891_a_at) / Fold change /veh ECM1 (11717891_a_at) / RFU IL23R (11748794_a_at) / Fold change /veh IL23R (11748794_a_at) / RFU TNFAIP8L3 (11732012_x_at) / Fold change /veh TNFAIP8L3 (11732012_x_at) / RFU MBOAT4 (11741988_at) / Fold change /veh MBOAT4 (11741988_at) / RFU 11764193_at / Fold change /veh 11764193_at / RFU TMEM53 (11763286_at) / Fold change /veh TMEM53 (11763286_at) / RFU MAGEB2 (11727129_at) / Fold change /veh MAGEB2 (11727129_at) / RFU TMEM200A (11744735_a_at) / Fold change /veh TMEM200A (11744735_a_at) / RFU CCDC152 (11751479_a_at) / Fold change /veh CCDC152 (11751479_a_at) / RFU FAM211A (11726209_a_at) / Fold change /veh FAM211A (11726209_a_at) / RFU RGS16 (11746705_a_at) / Fold change /veh RGS16 (11746705_a_at) / RFU VCAN (11755009_s_at) / Fold change /veh VCAN (11755009_s_at) / RFU RHOB (11743442_s_at) / Fold change /veh RHOB (11743442_s_at) / RFU RGS16 (11720943_a_at) / Fold change /veh RGS16 (11720943_a_at) / RFU RGS16 (11720944_at) / Fold change /veh RGS16 (11720944_at) / RFU, VPS4B / Fold change vs veh, VPS4B / RFU, CREB1 / Fold change vs veh, CREB1 / RFU, DNAJC13 / Fold change vs veh, DNAJC13 / RFU, GNAQ / Fold change vs veh, GNAQ / RFU, CDK5R1 / Fold change vs veh, CDK5R1 / RFU, ZRANB3 / Fold change vs veh, ZRANB3 / RFU, CUL4A / Fold change vs veh, CUL4A / RFU, CCNY / Fold change vs veh, CCNY / RFU, UFL1 / Fold change vs veh, UFL1 / RFU, COG3 / Fold change vs veh, COG3 / RFU, DIAPH2 / Fold change vs veh, DIAPH2 / RFU, SKA2 / Fold change vs veh, SKA2 / RFU, AFF3 / Fold change vs veh, AFF3 / RFU, LMF1 / Fold change vs veh, LMF1 / RFU, IPO11 / Fold change vs veh, IPO11 / RFU, DFFB / Fold change vs veh, DFFB / RFU, FOXP1 / Fold change vs veh, FOXP1 / RFU, CARD8 / Fold change vs veh, CARD8 / RFU, STRN3 / Fold change vs veh, STRN3 / RFU, ADK / Fold change vs veh, ADK / RFU, RASSF2 / Fold change vs veh, RASSF2 / RFU, WIPF1 / Fold change vs veh, WIPF1 / RFU, LARP1B / Fold change vs veh, LARP1B / RFU, RASA1 / Fold change vs veh, RASA1 / RFU, RB1 / Fold change vs veh, RB1 / RFU, PPFIA1 / Fold change vs veh, PPFIA1 / RFU, MAT2A / Fold change vs veh, MAT2A / RFU, CCT5 / Fold change vs veh, CCT5 / RFU, WDR92 / Fold change vs veh, WDR92 / RFU, CUX1 / Fold change vs veh, CUX1 / RFU, TTC7A / Fold change vs veh, TTC7A / RFU, TMEM135 / Fold change vs veh, TMEM135 / RFU, DEPTOR / Fold change vs veh, DEPTOR / RFU, CPM / Fold change vs veh, CPM / RFU, DNAJB6 / Fold change vs veh, DNAJB6 / RFU, CACNA2D3 / Fold change vs veh, CACNA2D3 / RFU, DTX4 / Fold change vs veh, DTX4 / RFU, TFCP2 / Fold change vs veh, TFCP2 / RFU, GMCL1 /// GMCL1P1 / Fold change vs veh, GMCL1 /// GMCL1P1 / RFU, AEBP2 / Fold change vs veh, AEBP2 / RFU, SNHG1 /// SNORD22 /// SNORD25 /// SNORD26 /// SNORD27 /// SNORD28 /// SNORD29 /// SNORD31 / Fold change vs veh, SNHG1 /// SNORD22 /// SNORD25 /// SNORD26 /// SNORD27 /// SNORD28 /// SNORD29 /// SNORD31 / Fold change (Aza/veh), C12orf56 (ProbeSet 11735607_a_at) / Fold change (ACY-1035/veh), C12orf56 (ProbeSet 11735607_a_at) / Fold change (Aza/veh), FGFR1OP (ProbeSet 11751329_s_at) / Fold change (ACY-1035/veh), FGFR1OP (ProbeSet 11751329_s_at) / Fold change (Aza/veh), VPS36 (ProbeSet 11739960_a_at) / Fold change (ACY-1035/veh), VPS36 (ProbeSet 11739960_a_at) / RFU SYPL1 (11715823_x_at) / Fold change /veh SYPL1 (11715823_x_at) / RFU IGFBP7 (11715501_s_at) / Fold change /veh IGFBP7 (11715501_s_at) / RFU REEP3 (11722064_at) / Fold change /veh REEP3 (11722064_at) / RFU IGLL1 (11728026_x_at) / Fold change /veh IGLL1 (11728026_x_at): dose or concentration left out as unconfirmed
# Settings: ProbeSet 11758919_x_at; LIST D
structure (smiles),measurement,value
Nc1ncn([C@@H]2O[C@H](CO)[C@@H](O)[C@H]2O)c(=O)n1 [azacitidine],"Fold change vs veh, TFCP2",0.71
